Assay results taken from US9139587B2, “N1-pyrazolospiroketone acetyl-CoA carboxylase inhibitors” (Pfizer Inc., priority 2009, dated 2015).

What was measured:
[1] = molecular target: T1, recombinant human ACC1 (rhACC1) (Homo sapiens, UniProt Q13085, DEL44-44); assay: recombinant hACC1 Transcreener assay (direct inhibition of ACC1 activity); format: biochemical; conditions: Transcreener ADP detection FP assay, 50 μM ATP, 30 μM acetyl-CoA, 120 min at 25° C.
T1 construct: recombinant baculovirus containing full length human ACC1 cDNA; made in house; host or cells: SF9 insect cells (baculovirus)
Summary of the method: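 Full-length human ACC1 from baculovirus-infected SF9 cells, dephosphorylated with lambda phosphatase. Reaction in 50 mM HEPES pH 7.2 with 30 μM acetyl-CoA, 50 μM ATP, 10 mM KHCO3, 120 min at 25° C; ADP detected by Transcreener fluorescence polarisation.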

[2] = molecular target: T2, recombinant human ACC2 (rhACC2) (Homo sapiens, UniProt O00763, V2141I); assay: recombinant hACC2 Transcreener assay (direct inhibition of ACC2 activity); format: biochemical; conditions: Transcreener ADP detection FP assay, 50 μM ATP, 30 μM acetyl-CoA, 50 min at 25° C.
T2 construct: a full length Cytomax clone of ACC2 was purchased from Cambridge Bioscience Limited; made in house; host or cells: CHO cells (tetracycline-induced, pcDNA5 FRT TO-TOPO)
T2 sequence (O00763 whole entry V2141I): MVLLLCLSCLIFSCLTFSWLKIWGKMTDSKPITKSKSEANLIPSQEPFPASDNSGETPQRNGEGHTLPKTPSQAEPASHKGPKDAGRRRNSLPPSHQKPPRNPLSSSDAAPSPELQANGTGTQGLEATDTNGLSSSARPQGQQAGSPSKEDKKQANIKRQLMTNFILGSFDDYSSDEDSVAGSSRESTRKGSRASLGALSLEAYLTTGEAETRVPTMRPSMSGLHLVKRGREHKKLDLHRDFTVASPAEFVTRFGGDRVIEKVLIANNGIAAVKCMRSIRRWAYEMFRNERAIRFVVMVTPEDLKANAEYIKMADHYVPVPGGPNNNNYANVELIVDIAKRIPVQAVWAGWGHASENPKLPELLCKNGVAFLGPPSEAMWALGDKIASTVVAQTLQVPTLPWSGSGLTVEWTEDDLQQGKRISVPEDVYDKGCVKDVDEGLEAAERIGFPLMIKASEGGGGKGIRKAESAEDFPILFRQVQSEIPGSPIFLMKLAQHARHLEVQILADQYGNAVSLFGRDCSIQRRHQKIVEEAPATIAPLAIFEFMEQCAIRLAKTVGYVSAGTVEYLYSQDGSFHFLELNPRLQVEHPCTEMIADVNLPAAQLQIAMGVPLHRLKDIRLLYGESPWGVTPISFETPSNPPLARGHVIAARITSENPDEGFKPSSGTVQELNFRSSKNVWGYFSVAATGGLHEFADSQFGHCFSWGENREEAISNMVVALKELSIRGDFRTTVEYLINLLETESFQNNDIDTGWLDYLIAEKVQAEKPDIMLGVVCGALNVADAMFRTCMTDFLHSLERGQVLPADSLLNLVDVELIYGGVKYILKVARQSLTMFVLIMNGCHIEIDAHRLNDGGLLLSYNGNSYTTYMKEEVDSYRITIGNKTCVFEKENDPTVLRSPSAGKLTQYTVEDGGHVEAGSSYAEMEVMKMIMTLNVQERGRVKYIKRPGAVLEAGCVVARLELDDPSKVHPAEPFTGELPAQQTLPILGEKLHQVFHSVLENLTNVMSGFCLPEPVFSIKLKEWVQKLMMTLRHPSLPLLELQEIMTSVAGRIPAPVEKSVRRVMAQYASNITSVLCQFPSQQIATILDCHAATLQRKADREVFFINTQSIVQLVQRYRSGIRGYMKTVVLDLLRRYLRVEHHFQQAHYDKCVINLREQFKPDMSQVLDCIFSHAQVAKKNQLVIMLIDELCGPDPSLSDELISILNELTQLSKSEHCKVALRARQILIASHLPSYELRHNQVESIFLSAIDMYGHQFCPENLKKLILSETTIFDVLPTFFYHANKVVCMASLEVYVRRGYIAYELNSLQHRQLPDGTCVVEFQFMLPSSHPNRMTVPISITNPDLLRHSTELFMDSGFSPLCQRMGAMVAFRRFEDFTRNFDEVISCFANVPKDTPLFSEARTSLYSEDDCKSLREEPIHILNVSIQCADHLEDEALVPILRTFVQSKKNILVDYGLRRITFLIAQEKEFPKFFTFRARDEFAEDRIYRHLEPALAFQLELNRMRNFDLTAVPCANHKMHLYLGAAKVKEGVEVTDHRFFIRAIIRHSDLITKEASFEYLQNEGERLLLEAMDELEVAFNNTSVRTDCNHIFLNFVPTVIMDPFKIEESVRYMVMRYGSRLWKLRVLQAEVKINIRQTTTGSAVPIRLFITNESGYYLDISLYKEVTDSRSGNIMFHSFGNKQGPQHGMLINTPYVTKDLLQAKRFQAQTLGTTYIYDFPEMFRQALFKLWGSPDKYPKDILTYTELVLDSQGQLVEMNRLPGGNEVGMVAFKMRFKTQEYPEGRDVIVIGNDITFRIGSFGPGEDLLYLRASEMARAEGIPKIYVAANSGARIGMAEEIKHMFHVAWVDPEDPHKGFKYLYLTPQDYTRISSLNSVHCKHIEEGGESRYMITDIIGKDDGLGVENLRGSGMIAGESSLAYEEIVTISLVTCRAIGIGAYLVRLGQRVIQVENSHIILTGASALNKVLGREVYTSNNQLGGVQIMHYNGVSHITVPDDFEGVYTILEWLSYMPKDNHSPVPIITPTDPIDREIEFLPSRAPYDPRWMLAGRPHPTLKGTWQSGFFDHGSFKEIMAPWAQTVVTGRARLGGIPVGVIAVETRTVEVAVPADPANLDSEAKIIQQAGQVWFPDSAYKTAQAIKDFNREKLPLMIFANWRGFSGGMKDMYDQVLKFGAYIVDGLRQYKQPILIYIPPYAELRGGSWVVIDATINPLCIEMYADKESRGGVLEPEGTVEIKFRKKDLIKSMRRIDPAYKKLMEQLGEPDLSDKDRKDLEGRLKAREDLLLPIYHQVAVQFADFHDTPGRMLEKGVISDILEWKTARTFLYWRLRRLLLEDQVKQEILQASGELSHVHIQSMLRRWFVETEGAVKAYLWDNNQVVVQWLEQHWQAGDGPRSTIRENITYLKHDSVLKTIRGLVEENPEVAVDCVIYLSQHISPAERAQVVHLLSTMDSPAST
Summary of the method: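 Full-length human ACC2 was expressed in CHO cells and avidin-purified. ADP formation was measured by Transcreener FP in 50 mM HEPES pH 7.2 with 30 μM acetyl-CoA, 50 μM ATP, 8 mM KHCO3 and 5 mM citrate. Reactions ran 50 min at 25 °C with 1% DMSO, then 1 h with stop/detect reagent.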

SMILES	IC50 [1] [µM]	IC50 [2] [µM]
CC(C)(C)n1ncc2c1C(=O)CC1(CCN(C(=O)c3cnc4cc[nH]c4c3)CC1)C2 [Example 2A-24]	0.0307	0.0158
CC(C)(C)n1ncc2c1C(=O)CC1(CCN(C(=O)c3cc(F)c4nc[nH]c4c3)CC1)C2 [Example 2A-51]	0.0727	0.0299
Cc1ccc(O)c(C(=O)N2CCC3(CC2)CC(=O)c2c(cnn2C(C)C)C3)n1 [Example 11A-49]	13.5	4.91
CC(C)(C)n1ncc2c1C(=O)CC1(CCN(C(=O)c3cc4cccn4cn3)CC1)C2 [Example 11A-69]	0.58	0.288

Second part, the compound after the results:

IC50 [1] [µM]	IC50 [2] [µM]	SMILES
0.0961	0.0486	Cc1nc2ccc(C(=O)N3CCC4(CC3)CC(=O)c3c(cnn3C(C)C)C4)cc2[nH]1 [Example 3A-1, 1-isopropyl-1′-(2-methyl-1H-benzo[d]imidazole-5-carbonyl)-4,6-dihydrospiro[indazole-5,4′-piperidin]-7(1H)-one]
0.621	0.19	Cc1cccn2cc(C(=O)N3CCC4(CC3)CC(=O)c3c(cnn3C(C)(C)C)C4)nc12 [Example 11A-16]
0.167	0.0295	CC(C)n1ncc2c1C(=O)CC1(CCN(C(=O)c3ccc4c(c3)[nH]c(=O)n4C)CC1)C2 [Example 2A-46]
